From patent US20230212172A1, “ARYLACETAMIDE ANALOGS OF PIPERAZINE-[1,2,4]TRIAZOLO[4,3-B]PYRIDAZINES” (University of Vermont and State Agricultural College, priority 2020, published 2023)
Where two headings read alike, the source gives them in different places.

Assays:
[1] = system: C. parvum; experiment: In vitro inhibition of C. parvum development in HCT-8 cells; type: cell-based; settings: Cryptosporidium parvum
[2] = system: cryptosporidiosis; settings: cited from earlier work
[3] = HCT-8 cells, Table 4, read-out: EC50 for inhibition of C. parvum development in HCT-8 cells
[4] = average EC50, C. parvum in HCT-8 cells, read-out: Cp HTC-8 Avg EC50

Compound	EC50 [1, 3] [nM]	EC50 [1, 4] [nM]	further results
O=C(Cc1ccc(F)c(F)c1)N1CCN(c2ccc3nncn3n2)CC1 [Example 2800, 2-(3,4-difluorophenyl)-1-(4-{[1,2,4]triazolo[4,3-b]pyridazin-6-yl}piperazin-1-yl)ethan-1-one]	760	760	
O=C(Cc1ccc(Cl)c(Cl)c1)N1CCN(c2ccc3nnc(-c4ccccc4)n3n2)CC1 [Example 2807, 2-(3,4-dichlorophenyl)-1-(4-{3-phenyl-[1,2,4]triazolo[4,3-b]pyridazin-6-yl}piperazin-1-yl)ethan-1-one]	15000		
Cc1nnc2ccc(N3CCN(C(=O)Cc4ccc(Cl)c(Cl)c4)CC3)nn12 [Example 2808, 2-(3,4-dichlorophenyl)-1-(4-{3-methyl-[1,2,4]triazolo[4,3-b]pyridazin-6-yl}piperazin-1-yl)ethan-1-one]	30000		
O=C(Cc1ccc(-c2ccccc2)cc1)N1CCN(c2ccc3nncn3n2)CC1 [Example 2809, 2-{[1,1′-biphenyl]-4-yl}-1-(4-{[1,2,4]triazolo[4,3-b]pyridazin-6-yl}piperazin-1-yl)ethan-1-one]	> 25000		
O=C(Cc1ccc(Cl)c(Cl)c1)N1CCN(c2ccc3nnc(C(F)(F)F)n3n2)CC1 [Example 2810, 2-(3,4-dichlorophenyl)-1-{4-[3-(trifluoromethyl)-[1,2,4]triazolo[4,3-b]pyridazin-6-yl]piperazin-1-yl}ethan-1-one]	29000		
CC(C)(C)OC(=O)NCC#Cc1ccc(CC(=O)N2CCN(c3ccc4nncn4n3)CC2)cc1 [Example 2811, Tert-butyl N-(3-{4-[2-oxo-2-(4-{[1,2,4]triazolo[4,3-b]pyridazin-6-yl}piperazin-1-yl)ethyl]phenyl}prop-2-yn-1-yl)carbamate]	12800		
O=C(Cc1ccc(CN2CCOCC2)cc1)N1CCN(c2ccc3nncn3n2)CC1 [Example 2817, 2-{4-[(Morpholin-4-yl)methyl]phenyl}-1-(4-{[1,2,4]triazolo[4,3-b]pyridazin-6-yl}piperazin-1-yl)ethan-1-one]	> 25000		
O=C(Cc1ccc(CO)cc1)N1CCN(c2ccc3nncn3n2)CC1 [Example 2818]	> 25000		
O=C(Cc1ccccc1)N1CCN(c2ccc3nncn3n2)CC1 [Example 2819, 2-phenyl-1-(4-{[1,2,4]triazolo[4,3-b]pyridazin-6-yl}piperazin-1-yl)ethan-1-one]	22000		
C#Cc1ccc(CC(=O)N2CCN(c3ccc4nncn4n3)CC2)cc1 [Example 10046, 2-(4-ethynylphenyl)-1-(4-{[1,2,4]triazolo[4,3-b]pyridazin-6-yl}piperazin-1-yl)ethan-1-one]	883	883	
O=C(Cc1c(F)c(F)c(F)c(F)c1F)N1CCN(c2ccc3nncn3n2)CC1 [Example 10090, 2-(2,3,4,5,6-pentafluorophenyl)-1-(4-{[1,2,4]triazolo[4,3-b]pyridazin-6-yl}piperazin-1-yl)ethan-1-one]	> 50000		
O=C(Cc1ccc(Br)c(Cl)c1)N1CCN(c2ccc3nncn3n2)CC1 [Example 10238, 2-(4-bromo-3-chlorophenyl)-1-(4-{[1,2,4]triazolo[4,3-b]pyridazin-6-yl}piperazin-1-yl)ethan-1-one]	251	251	
O=C(Cc1ccc(Cl)c(Br)c1)N1CCN(c2ccc3nncn3n2)CC1 [Example 10239, 2-(3-bromo-4-chlorophenyl)-1-(4-{[1,2,4]triazolo[4,3-b]pyridazin-6-yl}piperazin-1-yl)ethan-1-one]	121	121	
O=C(Cc1ccc(Br)c(F)c1)N1CCN(c2ccc3nncn3n2)CC1 [Example 10240, 2-(4-bromo-3-fluorophenyl)-1-(4-{[1,2,4]triazolo[4,3-b]pyridazin-6-yl}piperazin-1-yl)ethan-1-one]	773	773	
O=C(Cc1ccc(F)c(Br)c1)N1CCN(c2ccc3nncn3n2)CC1 [Example 10241, 2-(3-bromo-4-fluorophenyl)-1-(4-{[1,2,4]triazolo[4,3-b]pyridazin-6-yl}piperazin-1-yl)ethan-1-one]	232	232	
CC(C)(C)OC(=O)NCCCc1ccc(CC(=O)N2CCN(c3ccc4nncn4n3)CC2)cc1 [Example 10242, Tert-butyl N-(3-{4-[2-oxo-2-(4-{[1,2,4]triazolo[4,3-b]pyridazin-6-yl}piperazin-1-yl)ethyl]phenyl}propyl)carbamate]	> 50000		
O=C(Cc1ccc(Cl)c(Cl)c1)N1CCN(c2ccc3nnc(Cc4ccccc4)n3n2)CC1 [Example 10249, 1-(4-{3-benzyl-[1,2,4]triazolo[4,3-b]pyridazin-6-yl}piperazin-1-yl)-2-(3,4-dichlorophenyl)ethan-1-one]	16000		
O=C(Cc1ccc(Cl)c(Cl)c1)N1CCN(c2ccc3nnc(-c4ccnc(C(F)(F)F)c4)n3n2)CC1 [Example 10262, 2-(3,4-dichlorophenyl)-1-(4-{3-[2-(trifluoromethyl)pyridin-4-yl]-[1,2,4]triazolo[4,3-b]pyridazin-6-yl}piperazin-1-yl)ethan-1-one]	6110		
O=C(Cc1ccc2c(c1)OCO2)N1CCN(c2ccc3nncn3n2)CC1 [Example 10422, 2-(2H-1,3-benzodioxol-5-yl)-1-(4-{[1,2,4]triazolo[4,3-b]pyridazin-6-yl}piperazin-1-yl)ethan-1-one]	10400		
O=C(Cc1ccc(S(F)(F)(F)(F)F)cc1)N1CCN(c2ccc3nncn3n2)CC1 [Example 10441, 2-[4-(pentafluoro-λ^6-sulfanyl)phenyl]-1-(4-{[1,2,4]triazolo[4,3-b]pyridazin-6-yl}piperazin-1-yl)ethan-1-one]	11500		
O=C(Cc1cccc(S(F)(F)(F)(F)F)c1)N1CCN(c2ccc3nncn3n2)CC1 [Example 10442, 2-[3-(pentafluoro-λ^6-sulfanyl)phenyl]-1-(4-{[1,2,4]triazolo[4,3-b]pyridazin-6-yl}piperazin-1-yl)ethan-1-one]	1120		
O=C(Cc1cc(Cl)cc(C(F)(F)F)c1)N1CCN(c2ccc3nncn3n2)CC1 [Example 10479, 2-[3-chloro-5-(trifluoromethyl)phenyl] -1-(4-{[1,2,4]triazolo[4,3-b]pyridazin-6-yl}piperazin-1-yl)ethan-1-one]	407	407	
O=C(Cc1ccc(C(F)(F)F)c(F)c1)N1CCN(c2ccc3nncn3n2)CC1 [Example 10480, 2-[3-fluoro-4-(trifluoromethyl)phenyl] -1-(4-{[1,2,4]triazolo[4,3-b]pyridazin-6-yl}piperazin-1-yl)ethan-1-one]	2000		
O=C(Cc1ccc(Cl)c(C(F)(F)F)c1)N1CCN(c2ccc3nncn3n2)CC1 [Example 10481, 2-[4-chloro-3-(trifluoromethyl)phenyl] -1-(4-{[1,2,4]triazolo[4,3-b]pyridazin-6-yl}piperazin-1-yl)ethan-1-one]	272	272	
O=C(Cc1ccc(F)c(C(F)(F)F)c1)N1CCN(c2ccc3nncn3n2)CC1 [Example 10482, 2-[4-fluoro-3-(trifluoromethyl)phenyl] -1-(4-{[1,2,4]triazolo[4,3-b]pyridazin-6-yl}piperazin-1-yl)ethan-1-one]	68.7	68.6	
O=C(Cc1cc(F)cc(Cl)c1)N1CCN(c2ccc3nncn3n2)CC1 [Example 10483, 2-(3-chloro-5-fluorophenyl)-1-(4-{[1,2,4]triazolo[4,3-b]pyridazin-6-yl}piperazin-1-yl)ethan-1-one]	880	880	
O=C(Cc1ccc(C(F)(F)F)cc1)N1CCN(c2ccc3nncn3n2)CC1 [Example 10484, 1-(4-{[1,2,4]triazolo[4,3-b]pyridazin-6-yl}piperazin-1-yl)-2-[4-(trifluoromethyl)phenyl] ethan-1-one]	5450		
O=C(Cc1cc(F)cc(F)c1)N1CCN(c2ccc3nncn3n2)CC1 [Example 10485, 2-(3,5-difluorophenyl)-1-(4-{[1,2,4]triazolo[4,3-b]pyridazin-6-yl}piperazin-1-yl)ethan-1-one]	5660		
CC(=O)Oc1ccccc1C(=O)Nc1ncc([N+](=O)[O-])s1 [Nitazoxanide]			efficacy in cryptosporidiosis ([2]; AIDS patients): no more effective than placebo; efficacy in cryptosporidiosis ([2]; children): partial efficacy
O=C(Cc1cc(C(F)(F)F)cc(C(F)(F)F)c1)N1CCN(c2ccc3nncn3n2)CC1 [SLU-0010495, 2-[3,5-bis(trifluoromethyl)phenyl]-1-(4-{[1,2,4]triazolo[4,3-b]pyridazin-6-yl}piperazin-1-yl)ethan-1-one]		319	
